pEC50: −log10 of the molar value.
Biological target: human GPR40 (Homo sapiens, UniProt O14842)
Assay: Inositol Phosphate Turnover (IP1) Assay 2
Format: cell-based
Parameters: expressed in transfected cells
Settings: HEK cells stably expressing human GPR40, Table 2, read-out: Human IP1
Procedure, shortened: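 HEK cells stably expressing human GPR40 (aequorin reporter background) seeded and grown 16 h at 37 °C, then treated with compound in IP-One stimulation buffer for 60 min at 37 °C. IP1 accumulation detected by HTRF/FRET after 60 min with detection reagents in the dark.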

Chain of human GPR40 (O14842 whole entry): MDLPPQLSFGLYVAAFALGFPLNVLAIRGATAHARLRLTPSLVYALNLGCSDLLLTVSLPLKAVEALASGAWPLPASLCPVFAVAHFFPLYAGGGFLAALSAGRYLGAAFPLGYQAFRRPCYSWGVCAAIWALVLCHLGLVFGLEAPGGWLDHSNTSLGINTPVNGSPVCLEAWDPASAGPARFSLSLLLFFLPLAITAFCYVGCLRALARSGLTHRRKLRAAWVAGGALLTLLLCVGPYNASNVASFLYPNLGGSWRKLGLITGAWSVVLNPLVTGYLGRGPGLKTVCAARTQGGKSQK

| Compound | pEC50 |
| --- | --- |
| COc1ccc(F)c(-c2ccc(C3CCc4ccc(C(C)C(C)C(=O)O)cc4O3)cc2)c1 (single isomer, unassigned) [Example 146] | 6.57 |
| COc1ccc(F)c(-c2ccc(C3CCc4ccc(C(C)C(C)C(=O)O)cc4O3)cc2)c1 (single isomer, unassigned) [Example 147a] | 8.05 |
| COc1ccc(F)c(-c2ccc(C3CCc4ccc(C(C)C(C)C(=O)O)cc4O3)cc2)c1 (single isomer, unassigned) [Example 147b] | 5.50 |
| COc1ccc(F)c(-c2ccc(C3CCc4ccc(C(C)C(C)C(=O)O)cc4O3)cc2)c1 (single isomer, unassigned) [Example 147c] | 6.86 |
| COc1ccc(F)c(-c2ccc(C3CCc4ccc([C@H](CC(=O)O)C5CCC5)cc4O3)cc2)c1 (single isomer, unassigned) [Example 148, (3R)-3-cyclobutyl-3-((R or S)-(2-(2′-fluoro-5′-methoxy-[1,1′-biphenyl]-4-yl)chroman-7-yl)propanoic acid] | 6.40 |
| COc1ccc(F)c(-c2ccc([C@H]3CCc4ccc([C@@H](CC(=O)O)C5CCC5)cc4O3)cc2)c1 (single isomer, unassigned) [Example 149, (3S)-3-cyclobutyl-3-((R or S)-(2-(2′-fluoro-5′-methoxy-[1,1′-biphenyl]-4-yl)chroman-7-yl)propanoic acid] | 7.39 |
| COc1ccc(F)c(-c2ccc([C@H]3CCc4ccc([C@H](CC(=O)O)C5CCC5)cc4O3)cc2)c1 (single isomer, unassigned) [Example 150, (3R)-3-cyclobutyl-3-((R or S)-(2-(2′-fluoro-5′-methoxy-[1,1′-biphenyl]-4-yl)chroman-7-yl)propanoic acid] | 6.18 |
| COc1ccc(F)c(-c2ccc([C@@H]3CCc4ccc([C@@H](CC(=O)O)C5CCC5)cc4O3)cc2)c1 (single isomer, unassigned) [Example 151, (3S)-3-cyclobutyl-3-((R or S)-(2-(2′-fluoro-5′-methoxy-[1,1′-biphenyl]-4-yl)chroman-7-yl)propanoic acid] | 7.10 |
| COc1ccc(F)c(-c2ccc(C3CCc4ccc(C(C5CCC5)C(C)C(=O)O)cc4O3)cc2)c1 (single isomer, unassigned) [Example 152, (2S,3S)-3-cyclobutyl-3-((R or S)-2-(2′-fluoro-5′-methoxy-[1,1′-biphenyl]-4-yl)chroman-7-yl)-2-methylpropanoic acid] | 6.11 |
| COc1ccc(F)c(-c2ccc(C3CCc4ccc(C(C5CCC5)C(C)C(=O)O)cc4O3)cc2)c1 (single isomer, unassigned) [Example 153] | 7.66 |
| COc1ccc(F)c(-c2ccc(C3CCc4ccc(C(C5CCC5)C(C)C(=O)O)cc4O3)cc2)c1 (single isomer, unassigned) [Example 154] | 7.07 |
| COc1ccc(F)c(-c2ccc(C3CCc4ccc(C(C5CCC5)C(C)C(=O)O)cc4O3)cc2)c1 (single isomer, unassigned) [Example 155] | 9.00 |
| COc1ccc(F)c(-c2ccc(C3CCc4ccc(C(C5CCC5)C(C)C(=O)O)cc4O3)cc2)c1 (single isomer, unassigned) [Example 156] | 6.68 |
| COc1ccc(F)c(-c2ccc(C3CCc4ccc(C(C5CCC5)C(C)C(=O)O)cc4O3)cc2)c1 (single isomer, unassigned) [Example 157] | 7.05 |
| COc1ccc(F)c(-c2ccc(C3CCc4ccc(C(C5CCC5)C(C)C(=O)O)cc4O3)cc2)c1 (single isomer, unassigned) [Example 158] | 6.88 |
| COc1ccc(F)c(-c2ccc(C3CCc4ccc(C(C5CCC5)C(C)C(=O)O)cc4O3)cc2)c1 (single isomer, unassigned) [Example 159] | 8.74 |
| COc1ccc(F)c(-c2ccc(C3CCc4ccc([C@@H](CC(=O)O)C5CC5)cc4O3)cc2)c1 (stereo partly drawn) [Example 60, (3S)-3-cyclopropyl-3-(2-(2′-fluoro-5′-methoxy-[1,1′-biphenyl]-4-yl)chroman-7-yl)propanoic acid] | 7.60 |
| COc1cc(-c2ccc(C3CCc4ccc([C@@H](CC(=O)O)C5CC5)cc4O3)cc2)c(F)cn1 (stereo partly drawn) [Example 71] | 7.96 |
| COc1cc(F)cc(-c2ccc(C3CCc4ccc([C@@H](CC(=O)O)C5CC5)cc4O3)cc2)c1 (stereo partly drawn) [Example 72] | 6.94 |
| O=C(O)C[C@H](c1ccc2c(c1)OC(c1ccc(-c3cccc(OCC(F)(F)F)c3)cc1)CC2)C1CC1 (stereo partly drawn) [Example 73] | 5.92 |
| COc1cc(-c2ccc(C3CCc4ccc([C@@H](CC(=O)O)C5CC5)cc4O3)cc2)ccn1 (stereo partly drawn) [Example 74] | 7.72 |
| COc1cccc(-c2ccc(C3CCc4ccc([C@@H](CC(=O)O)C5CC5)cc4O3)cc2)n1 (stereo partly drawn) [Example 75] | 6.52 |

Same assay, conditions: HEK cells stably expressing human GPR40, Table 3, read-out: Human IP1 activity

| Compound | pEC50 |
| --- | --- |
| COc1ccc(F)c(-c2ccc(C3COc4ccc([C@H](C5CC5)[C@H](C)C(=O)O)cc4O3)nc2)c1 (single isomer, unassigned) [Example 160] | 8.80 |
| COc1ccc(F)c(-c2ccc(C3COc4ccc([C@H](C5CC5)[C@H](C)C(=O)O)cc4O3)nc2)c1 (single isomer, unassigned) [Example 161] | 8.66 |
| COc1ccc(F)c(-c2ccc(C3COc4ccc([C@@H](CC(=O)O)C5CC5)cc4O3)cc2)c1 (single isomer, unassigned) [Example 167] | 7.51 |
| COc1ccc(F)c(-c2ccc(C3COc4ccc([C@@H](CC(=O)O)C5CC5)cc4O3)cc2)c1 (single isomer, unassigned) [Example 168] | 6.92 |
| COc1ccc(F)c(-c2ccc(C3COc4ccc([C@H](C5CC5)[C@H](C)C(=O)O)cc4O3)cc2OC(F)(F)F)c1 (single isomer, unassigned) [Example 171] | 8.59 |
| COc1ccc(F)c(-c2ccc(C3COc4ccc([C@H](C5CC5)[C@H](C)C(=O)O)cc4O3)cc2OC(F)(F)F)c1 (single isomer, unassigned) [Example 172] | 8.16 |
| COc1ccc(F)c(-c2ccc(C3COc4ccc([C@H](C5CC5)[C@H](C)C(=O)O)cc4O3)cc2)c1 (single isomer, unassigned) [Example 173] | 8.74 |
| COc1ccc(F)c(-c2ccc(C3COc4ccc([C@H](C5CC5)[C@H](C)C(=O)O)cc4O3)cc2)c1 (single isomer, unassigned) [Example 174] | 9.30 |
| CC#C[C@@H](CC(=O)O)c1ccc2c(c1)OCC(c1ccc(-c3cc(OC)ccc3F)cc1)O2 (single isomer, unassigned) [Example 176] | 6.11 |
| CC#C[C@@H](CC(=O)O)c1ccc2c(c1)OCC(c1ccc(-c3cc(OC)ccc3F)cc1)O2 (single isomer, unassigned) [Example 177] | 6.06 |
| COc1ccc(F)c(-c2ccc(C3COc4ccc([C@H](C5CC5)[C@H](C)C(=O)O)c(F)c4O3)cc2)c1 (single isomer, unassigned) [Example 185] | 8.70 |
| COc1ccc(F)c(-c2ccc(C3COc4ccc([C@H](C5CC5)[C@H](C)C(=O)O)c(F)c4O3)cc2)c1 (single isomer, unassigned) [Example 186] | 8.10 |
| C[C@H](C(=O)O)[C@H](c1ccc2c(c1)OC(C1CN(Cc3cc(C(F)(F)F)ccc3C(F)(F)F)C1)CO2)C1CC1 (single isomer, unassigned) [Example 187] | 5.89 |
| C[C@H](C(=O)O)[C@H](c1ccc2c(c1)OC(C1CN(Cc3cc(C(F)(F)F)ccc3C(F)(F)F)C1)CO2)C1CC1 (single isomer, unassigned) [Example 188] | 8.28 |

— US9840512B2, “Antidiabetic bicyclic compounds” (Merck Sharp & Dohme Corp., priority 2013, dated 2017)
